Patent US20230021483A1, “[…] […] METHOD AND CLASSIFICATION OF PHARMACEUTICAL COMPONENTS BY USING TRANSCRIPTOMES” (National Institutes of Biomedical Innovation, Health and …, priority 2016, published 2023)

What was measured:
[1] = system: liver (LV); assay: Whole organ transcriptome (GeneChip microarray) of liver 6 h after adjuvant administration: sDEGs, hierarchical clustering; assay type: in vivo, C57BL/6 mice; settings: for Number of gene probes with statistically significant changes (sDEGs), LV, Down / Number of gene probes with statistically significant changes (sDEGs), LV, Up: liver, 6 h after adjuvant; for Number of gene probes with statistically significant changes (sDEGs), LV, Down: fold change <0.667, p<0.01, customized PA call=1; for Number of gene probes with statistically significant changes (sDEGs), LV, Up: fold change >1.5, p<0.01, customized PA call=1; for cluster of strongly responding individual samples in LV (clustering exceptions): key: G1 (interferon signaling); G2 (metabolism of lipids and lipoproteins); G3 (response to stress); G4 (response to wounding); G5 (phosphate-containing compound metabolic process); G6 (phagosome)
[2] = system: adjuvant-associated biological themes in LV, SP, LN
How it was run: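 Per-mouse whole-organ transcriptomes; genes with eij/ei(c)>2.0 tested for theme enrichment via TargetMine (GO, KEGG, Reactome, others), Fisher's exact test, Holm-Bonferroni correction. Themes shared by all three mice kept at p<0.05, using the smallest p. Score per adjuvant-associated term = Σ−log(p) of matching themes.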

K3: B class CpG ODN (ATCGACTCTCGAGCGTTCTC), TLR9 ligand (chemistry not given here)
Number of gene probes with statistically significant changes (sDEGs), LV, Down ([1]; i.d. administration): 22
Number of gene probes with statistically significant changes (sDEGs), LV, Up ([1]; i.d. administration): 10
Number of gene probes with statistically significant changes (sDEGs), LV, Down ([1]; i.p. administration): 50
Number of gene probes with statistically significant changes (sDEGs), LV, Up ([1]; i.p. administration): 18
cluster of strongly responding individual samples in LV (clustering exceptions) ([1]; samples D35_ID_x2 and K3_ID_x3 only): G2
tissue damage-associated annotations (cell death, wounding) in LNs ([2]; LN, i.d., fold change >2): did not induce cell death and wounding in LNs
IFN alpha, GO annotation line 1 of 5 ([2]; LV, ID): 0
IFN alpha, GO annotation line 2 of 5 ([2]; LV, ID): 0
IFN alpha: cellular response to interferon-alpha ([2]; LV, ID): 0
IFN alpha: positive regulation of interferon-alpha production ([2]; LV, ID): 0
IFN alpha: regulation of interferon-alpha production ([2]; LV, ID): 0
IFN beta: cellular response to interferon-beta ([2]; LV, ID): 0
IFN beta: interferon-beta production ([2]; LV, ID): 0
IFN beta: positive regulation of interferon-beta production ([2]; LV, ID): 0
IFN beta: regulation of interferon-beta production ([2]; LV, ID): 0
IFN beta: response to interferon-beta ([2]; LV, ID): 0
IFN gamma: cellular response to interferon-gamma ([2]; LV, ID): 0
IFN gamma: interferon-gamma production ([2]; LV, ID): 0
IFN gamma: regulation of interferon-gamma production ([2]; LV, ID): 0
IFN gamma: response to interferon-gamma ([2]; LV, ID): 0
NF-kappa B signaling pathway, GO annotation line 1 of 4 ([2]; LV, ID): 6.19
NF-kappa B signaling pathway, GO annotation line 2 of 4 ([2]; LV, ID): 0
NF-kappa B signaling pathway, GO annotation line 3 of 4 ([2]; LV, ID): 0
NF-kappa B signaling pathway, GO annotation line 4 of 4 ([2]; LV, ID): 0
TNF signaling pathway ([2]; LV, ID): 14.5
adaptive immune response, GO annotation line 1 of 5 ([2]; LV, ID): 0
adaptive immune response, GO annotation line 2 of 5 ([2]; LV, ID): 0
adaptive immune response, GO annotation line 3 of 5 ([2]; LV, ID): 0
adaptive immune response, GO annotation line 4 of 5 ([2]; LV, ID): 0
adaptive immune response, GO annotation line 5 of 5 ([2]; LV, ID): 0
apoptosis, GO annotation line 1 of 8 ([2]; LV, ID): 15.7
apoptosis, GO annotation line 2 of 8 ([2]; LV, ID): 10.1
apoptosis, GO annotation line 3 of 8 ([2]; LV, ID): 10.3
apoptosis, GO annotation line 4 of 8 ([2]; LV, ID): 0
apoptosis, GO annotation line 5 of 8 ([2]; LV, ID): 5.99
apoptosis, GO annotation line 6 of 8 ([2]; LV, ID): 3.19
apoptosis, GO annotation line 7 of 8 ([2]; LV, ID): 0
apoptosis, GO annotation line 8 of 8 ([2]; LV, ID): 0
cell death, GO annotation line 1 of 9 ([2]; LV, ID): 18.3
cell death, GO annotation line 2 of 9 ([2]; LV, ID): 13.9
cell death, GO annotation line 3 of 9 ([2]; LV, ID): 14.9
cell death, GO annotation line 4 of 9 ([2]; LV, ID): 10.5
cell death, GO annotation line 5 of 9 ([2]; LV, ID): 10.9
cell death, GO annotation line 6 of 9 ([2]; LV, ID): 7.25
cell death, GO annotation line 7 of 9 ([2]; LV, ID): 6.67
cell death, GO annotation line 8 of 9 ([2]; LV, ID): 0
cell death, GO annotation line 9 of 9 ([2]; LV, ID): 0
chemokine, GO annotation line 1 of 4 ([2]; LV, ID): 0
chemokine, GO annotation line 2 of 4 ([2]; LV, ID): 0
chemokine, GO annotation line 3 of 4 ([2]; LV, ID): 0
chemokine, GO annotation line 4 of 4 ([2]; LV, ID): 0
chemotaxis, GO annotation line 1 of 11 ([2]; LV, ID): 0
chemotaxis, GO annotation line 2 of 11 ([2]; LV, ID): 0
chemotaxis, GO annotation line 3 of 11 ([2]; LV, ID): 0
chemotaxis, GO annotation line 4 of 11 ([2]; LV, ID): 0
chemotaxis, GO annotation line 5 of 11 ([2]; LV, ID): 0
chemotaxis, GO annotation line 6 of 11 ([2]; LV, ID): 0
chemotaxis, GO annotation line 7 of 11 ([2]; LV, ID): 0
chemotaxis, GO annotation line 8 of 11 ([2]; LV, ID): 0
chemotaxis, GO annotation line 9 of 11 ([2]; LV, ID): 0
chemotaxis, GO annotation line 10 of 11 ([2]; LV, ID): 0
chemotaxis, GO annotation line 11 of 11 ([2]; LV, ID): 0
cytokine, GO annotation line 1 of 17 ([2]; LV, ID): 0
cytokine, GO annotation line 2 of 17 ([2]; LV, ID): 0
cytokine, GO annotation line 3 of 17 ([2]; LV, ID): 0
cytokine, GO annotation line 4 of 17 ([2]; LV, ID): 0
cytokine, GO annotation line 5 of 17 ([2]; LV, ID): 0
cytokine, GO annotation line 6 of 17 ([2]; LV, ID): 0
cytokine, GO annotation line 7 of 17 ([2]; LV, ID): 0
cytokine, GO annotation line 8 of 17 ([2]; LV, ID): 0
cytokine, GO annotation line 9 of 17 ([2]; LV, ID): 0
cytokine, GO annotation line 10 of 17 ([2]; LV, ID): 0
cytokine, GO annotation line 11 of 17 ([2]; LV, ID): 0
cytokine, GO annotation line 12 of 17 ([2]; LV, ID): 0
cytokine, GO annotation line 13 of 17 ([2]; LV, ID): 0
cytokine, GO annotation line 14 of 17 ([2]; LV, ID): 0
cytokine, GO annotation line 15 of 17 ([2]; LV, ID): 0
cytokine, GO annotation line 16 of 17 ([2]; LV, ID): 0
cytokine, GO annotation line 17 of 17 ([2]; LV, ID): 0
defense response, GO annotation line 1 of 11 ([2]; LV, ID): 0
defense response, GO annotation line 2 of 11 ([2]; LV, ID): 0
defense response, GO annotation line 3 of 11 ([2]; LV, ID): 0
defense response, GO annotation line 4 of 11 ([2]; LV, ID): 0
defense response, GO annotation line 5 of 11 ([2]; LV, ID): 0
defense response, GO annotation line 6 of 11 ([2]; LV, ID): 0
defense response, GO annotation line 7 of 11 ([2]; LV, ID): 0
defense response, GO annotation line 8 of 11 ([2]; LV, ID): 0
defense response, GO annotation line 9 of 11 ([2]; LV, ID): 0
defense response, GO annotation line 10 of 11 ([2]; LV, ID): 0
defense response, GO annotation line 11 of 11 ([2]; LV, ID): 0
immune response, GO annotation line 1 of 8 ([2]; LV, ID): 0
immune response, GO annotation line 2 of 8 ([2]; LV, ID): 0
immune response, GO annotation line 3 of 8 ([2]; LV, ID): 0
immune response, GO annotation line 4 of 8 ([2]; LV, ID): 0
immune response, GO annotation line 5 of 8 ([2]; LV, ID): 0
immune response, GO annotation line 6 of 8 ([2]; LV, ID): 0
immune response, GO annotation line 7 of 8 ([2]; LV, ID): 0
immune response, GO annotation line 8 of 8 ([2]; LV, ID): 0
inflammatory response, GO annotation line 1 of 5 ([2]; LV, ID): 0
inflammatory response, GO annotation line 2 of 5 ([2]; LV, ID): 0
inflammatory response, GO annotation line 3 of 5 ([2]; LV, ID): 0
inflammatory response, GO annotation line 4 of 5 ([2]; LV, ID): 0
inflammatory response, GO annotation line 5 of 5 ([2]; LV, ID): 0
innate immune response, GO annotation line 1 of 6 ([2]; LV, ID): 0
innate immune response, GO annotation line 2 of 6 ([2]; LV, ID): 0
innate immune response, GO annotation line 3 of 6 ([2]; LV, ID): 0
innate immune response, GO annotation line 4 of 6 ([2]; LV, ID): 0
innate immune response, GO annotation line 5 of 6 ([2]; LV, ID): 0
innate immune response, GO annotation line 6 of 6 ([2]; LV, ID): 0
interleukin-6: interleukin-6 production ([2]; LV, ID): 0
interleukin-6: positive regulation of interleukin-6 production ([2]; LV, ID): 0
interleukin-6: regulation of interleukin-6 production ([2]; LV, ID): 0
interleukin-12: interleukin-12 production ([2]; LV, ID): 0
interleukin-12: positive regulation of interleukin-12 production ([2]; LV, ID): 0
interleukin-12: regulation of interleukin-12 production ([2]; LV, ID): 0
migration, GO annotation line 1 of 10 ([2]; LV, ID): 0
migration, GO annotation line 2 of 10 ([2]; LV, ID): 0
migration, GO annotation line 3 of 10 ([2]; LV, ID): 0
migration, GO annotation line 4 of 10 ([2]; LV, ID): 0
migration, GO annotation line 5 of 10 ([2]; LV, ID): 0
migration, GO annotation line 6 of 10 ([2]; LV, ID): 0
migration, GO annotation line 7 of 10 ([2]; LV, ID): 0
migration, GO annotation line 8 of 10 ([2]; LV, ID): 0
migration, GO annotation line 9 of 10 ([2]; LV, ID): 0
migration, GO annotation line 10 of 10 ([2]; LV, ID): 0
stress, GO annotation line 1 of 3 ([2]; LV, ID): 12.9
stress, GO annotation line 2 of 3 ([2]; LV, ID): 0
stress, GO annotation line 3 of 3 ([2]; LV, ID): 0
wounding, GO annotation line 1 of 3 ([2]; LV, ID): 0
wounding, GO annotation line 2 of 3 ([2]; LV, ID): 0
wounding, GO annotation line 3 of 3 ([2]; LV, ID): 0
